Usually IC50 stands for the concentration that gives 50% inhibition.

For series [1], the system named is biotin-induced antibody release, U2OS clone #7 cells. As to the kind of experiment: High-throughput RUSH screen: biotin-induced cytoplasmic GFP signal decay (antibody release), U2OS clone #7. The format is cell-based, human.
Series [2] shares this test system. As to the kind of experiment: Low-throughput validation by imaging of the biotin-induced antibody release (cytoplasmic GFP), clone #7. The format is cell-based, human. The settings on record: FIG. 5C. The protocol:
FIGS. 5A-5C show selection of potential enhancers of protein secretion. FIGS. 5A and 5B) show dot plot representations of drugs efficiency based on their Z-scores measured at low and high drug concentration (FIG. 5A, Prestwick library; FIG. 5B, ICCB Known Bioactives and TargetMol Autophagy libraries). Compounds selected for further characterization are listed. (FIG. 5C) Clone #7 was treated with the indicated compounds, fixed and analyzed as described in FIG. 4A legend.
FIG. 6A-6C show validation of enhancers of protein secretion.
(§1) U2OS clone #7 cells were seeded in black 384-well imaging plates (Greiner bio one), 2,000 cells/well, and incubated for 24 h at 37° C. in a humidified incubator with 5% CO2. Cells were treated on the next day with the compounds from either the Prestwick library at […], the ICCB Known Bioactives library at 1/100^e or 1/1000^e, or the autophagy compound library at 10 μM or 1 μM for 4 h. […] Cells were then fixed as described above and processed for subsequent automated image acquisition using a robot-assisted IXM XL BioImager (Molecular Devices, Sunnyvale, CA, USA) equipped with a Sola light source (Lumencor, Beaverton, OR, USA), adapted excitation and emission filters (Semrock) a 16-bit monochrome sCMOS PCO.edge 5.5 camera (PCO, Kelheim, Germany). A 20× PlanAPO objective (Nikon, Tokyo, Japan) was used to acquire a minimum of 4 view fields in each well. […] Nuclei were first detected using Hoechst 33342 signal and used as a marker to detect cytoplasmic areas based on GFP signal, allowing for the evaluation of cytoplasmic GFP intensity. Data were thereafter extracted and statistically evaluated using R (https://www.r-project.org). […]
Medium- and high-throughput screenings often yield false positive and negative hits, calling for independent validation in low-throughput experiments with orthogonal technologies. In a first round of experiments, we evaluated the effects of shortlisted compounds with potential antibody secretion enhancer activity. […]

The test system of series [3] is RUSH antibody secretion, U2OS clone #7 cells. The experiment in a line: ELISA on immobilized PD-L1: RUSH antibody titer in supernatant of treated clone #7 cells. Type of series: cell-based, human. Conditions: 50 μg/mL. As for the experimental part: (§2) FIGS. 7A and 7B show validation of inhibitors of protein secretion. […] Clone #7 cells were treated with the indicated compounds and supernatants were assayed for PD-L1 binding. Brefeldin A was used as a protein secretion inhibitor positive control. […] Hoechst 33324 fluorescence was measured, which enabled to number adherent living cells in each well.
U2OS clone #7 cells were seeded in 6-well plates and kept for 24 h at 37° C. in a humidified incubator with 5% CO2. The next day, the supernatants were removed, cells were rinsed with 37° C. pre-heated PBS and new medium containing the chemical treatment was added for 4 h. […] Then supernatants were collected and used for the ELISA assay as follows. MaxiSorp 96-well plates (Thermo Fisher Scientific) were coated with 0.5 μg/mL hFc-human-PD-L1 (R&D Systems, Minneapolis, MN) in PBS for 5.5 h at RT. Coating solution was then removed and 2% BSA/PBS blocking solution was added overnight at 4° C. The next day, wells were washed 3 times with 0.5% BSA/0.05% Tween-20/PBS solution. Supernatants were added after a ⅓ dilution in 0.5% BSA/0.05% Tween-20/PBS, for 2.3 h at RT. Wells were washed 3 times with 0.5% BSA/0.05% Tween-20/PBS solution. Anti-human kappa light chain HRP-coupled antibody was added diluted in 0.5% BSA/0.05% Tween-20/PBS at 1/4000^e for 2.3 h at RT. Wells were washed 3 times with 0.5% BSA/0.05% Tween-20/PBS solution before incubation with substrate reagents pack (R&D Systems) for 15 min in the dark. Fifty μL of STOP solution (R&D Systems) were then added to each well and the absorbance in each well was subsequently measured at 450 nm, and 635 nm for background subtraction, using a VICTOR™ X4 (PerkinElmer, Waltham, MA).
Medium- and high-throughput screenings often yield false positive and negative hits, calling for independent validation in low-throughput experiments with orthogonal technologies. In a first round of experiments, we evaluated the effects of shortlisted compounds with potential antibody secretion enhancer activity. Compounds identified in the screening campaigns were tested again on clone #7 at a low concentration (FIG. 6A) or a ten-fold higher concentration (FIG. 6B) for their ability to increase antibody secretion. […] We further characterized these hits in an PD-L1 binding ELISA.

For series [4], the system named is U2OS clone #7 cells. As to the kind of experiment: Toxicity assay: Hoechst staining, number of adherent living cells. The settings on record: 50 μg/mL; FIG. 7B. The format is cell-based, human. The protocol:
as §2
as §1, with “Germany).” for “Germany). A 20× PlanAPO objective (Nikon, Tokyo, Japan) was used to acquire a minimum of 4 view fields in each well.”

The target in series [5] is tyrosine kinase. Conditions: tyrosine kinase inhibitor; cited from earlier work.
In series [6] the test system is ErbB2 tyrosine kinase. The settings on record: ErbB2 vs EGFR; cited from earlier work.
The test system of series [7] is TrKA. The settings on record: cited from earlier work.
In series [8] the test system is TrKB. Conditions: cited from earlier work.
Series [9] has as its system TrKC. Conditions: cited from earlier work.

In the case of `CC(C)(C)c1cc(/C=C(\C#N)C(N)=S)cc(C(C)(C)C)c1O` [tyrphostin AG-879], the “inhibition of the biotin-induced decrease of the GFP signal” value in series [1] (4 h compound, then 40 μM biotin 1 h, screening) is “inhibited the biotin-induced cytoplasmic GFP signal decay”. For the same compound, the “retention of the RUSH antibody in the cytoplasm” value in [1] (screening campaigns, summary) is “caused the retention of the RUSH antibody in the cytoplasm”. Also, the “effect on secretion by cell imaging” value in series [2] is recorded as “inhibitory effect”. The “inhibition of antibody secretion, validation” value in series [3] (summary) is given as “validated as an inhibitor of antibody secretion”. Besides, the “suppression of antibody secretion compared with brefeldin A” value in [3] (4 h compound, biotin 30 min, FIG. 7A) is reported as “as potent as brefeldin A in suppressing antibody secretion”. For the same compound, the cellular viability entry in [4] is recorded as “without affecting cellular viability”. Further, the IC50 in series [5] is 10 µM. In addition, the “specificity to ErbB2 over EGFR” value in [6] is listed as “at least 500 fold”. Besides, the “inhibition of TrKA phosphorylation” value in [7] is on record as “effectively inhibits TrKA phosphorylation”. Besides, in [8], the “inhibitory effect on TrKB” value is reported as “no inhibitory effect”. The “inhibitory effect on TrKC” value in series [9] is on record as “no inhibitory effect”.

These data come from patent publication US20260297508A1, “MODULATORS OF PROTEIN SECRETION” (SANOFI, priority 2023, published 2026).
